“And” between values parts separate entries of the source, which are not always exact repeats. Equal values may be shown once. Read-outs that look alike come from different tables or passages of the source.
Legend:
IMP-1 = IMP-1 (Serratia marcescens, UniProt P52699); assay: biochemical; assay type: biochemical; details: for inhibition of IMP-1, in words: tested up to 200 μM
NDM-1 = NDM-1 (Klebsiella pneumoniae, UniProt C7C422); assay: biochemical; assay type: biochemical; details: for IC50: 10 mM HEPES pH 7.5, 25 °C, average of at least two independent assays; for inhibition of NDM-1, in words: tested up to 200 μM
Sequence of NDM-1 (C7C422 29-270, looked up, species assumed): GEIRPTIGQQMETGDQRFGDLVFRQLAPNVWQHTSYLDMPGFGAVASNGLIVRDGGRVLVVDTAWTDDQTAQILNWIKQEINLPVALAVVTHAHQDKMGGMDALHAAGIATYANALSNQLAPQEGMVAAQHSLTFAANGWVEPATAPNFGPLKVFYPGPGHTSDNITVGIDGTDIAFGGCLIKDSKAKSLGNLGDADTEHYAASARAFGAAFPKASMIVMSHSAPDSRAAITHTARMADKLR

VIM-2 [1] = biological target: T1, VIM-2 (Escherichia coli, UniProt Q5U7L7); assay: biochemical
VIM-1 = VIM-1 (Pseudomonas aeruginosa, UniProt A0A0F7KYQ8); assay: biochemical; assay type: biochemical; details: for inhibition of VIM-1, in words: tested up to 200 μM
[2] = biological target: Aeromonas hydrophila CphA MBL; set-up: method as in PMID 17307979; details: read-out: Ki [inhibition constant] CphA; cited from earlier work
[3] = test system: NDM-1-producing Escherichia coli (DH5α/pLBII-NDM-1); assay: Imipenem MIC on laboratory strain; assay type: cell-based; details: tested at concentrations up to 1 mM; data not shown
VIM-2 [4] = biological target: T1, VIM-2; details: tested up to 200 μM
[5] = test system: NDM-1-producing strain Escherichia coli NTBC121; assay: Whole-cell meropenem potentiation, CLSI broth microdilution MIC; assay type: cell-based; details: for MICMEM (meropenem MIC in presence of inhibitor) vs NTBC121: inhibitor present at 100 μM, E. coli NTBC121 (NDM-1), meropenem alone 32 μg/mL
Protocol: (§1) Minimal inhibitory concentrations (MIC) were determined using the Clinical Laboratory Standards Institute (CLSI) broth microdilution procedure. MBL-positive Enterobacteriaceae clinical isolates tested in the susceptibility study included NDM-1-producing strain E. coli NTBC121, VIM-1-producing strain K. pneumoniae NTBC055, and IMP-1-producing strain K. pneumoniae NTBC062. (Individual MICs for all strains tested are presented in Table 2 and Table 1 in the Supporting Information).

[6] = test system: VIM-1-producing strain Klebsiella pneumoniae NTBC055; assay: as above; assay type: cell-based; details: inhibitor present at 100 μM; K. pneumoniae NTBC055 (VIM-1); meropenem alone 16 μg/mL
Protocol: as §1

[7] = test system: IMP-1-producing strain K. pneumoniae NTBC062; assay: as above; assay type: cell-based, Klebsiella pneumoniae; details: inhibitor present at 100 μM; K. pneumoniae NTBC062 (IMP-1); meropenem alone 4 μg/mL
Protocol: as §1

[8] = 300 μM imipenem, 10 mM HEPES pH 7.5, 25 °C, average of at least two independent assays, read-out: IMP-1 IC50
[9] = 300 μM imipenem, read-out: NDM-1 IC50
[10] = 300 μM imipenem, 10 mM HEPES pH 7.5, 25 °C, average of at least two independent assays, read-out: VIM-1 IC50

Sequence of IMP-1 (P52699 19-246, looked up, species assumed): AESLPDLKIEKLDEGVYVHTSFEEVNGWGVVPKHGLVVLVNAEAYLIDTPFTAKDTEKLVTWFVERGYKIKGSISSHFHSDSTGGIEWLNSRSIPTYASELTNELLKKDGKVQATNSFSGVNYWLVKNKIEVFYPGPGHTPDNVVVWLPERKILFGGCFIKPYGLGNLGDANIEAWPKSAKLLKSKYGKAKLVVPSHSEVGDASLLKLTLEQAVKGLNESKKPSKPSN

Row | Structure (SMILES) | IC50 (IMP-1) [µM] | inhibition of IMP-1, in words (IMP-1) | IC50 (NDM-1; NDM-1 IC50, 300 μM imipenem) | IC50 (VIM-2 [1]) [µM] | IC50 (VIM-1) [µM] | inhibition of VIM-1, in words (VIM-1) | Ki [2] [µM] | reduction of imipenem MIC [3] | inhibition of NDM-1, in words (NDM-1) | inhibition of VIM-2, in words (VIM-2 [4]) | MICMEM (meropenem MIC in presence of inhibitor) vs NTBC121 [5] [µg/mL] | MICMEM (meropenem MIC in presence of inhibitor) vs NTBC055 [6] [µg/mL] | MICMEM (meropenem MIC in presence of inhibitor) vs NTBC062 [7] [µg/mL] | IC50 (IMP-1; [8]) [µM] | IC50 (NDM-1; [9]) [µM] | IC50 (VIM-1; [10]) [µM] | IC50 (IMP-1; read-out: IMP-1 IC50, 300 μM imipenem, 10 mM HEPES pH 7.5, 25 °C, average of at least two independent assays) [µM] | IC50 (NDM-1; read-out: NDM-1 IC50, 300 μM imipenem) [µM] | potentiation efficiency (PE = MIC/IC50) ([5]; potentiated meropenem MIC vs E. coli NTBC121 divided by NDM-1 IC50) | IC50 (VIM-1; read-out: VIM-1 IC50, 300 μM imipenem, 10 mM HEPES pH 7.5, 25 °C, average of at least two independent assays) [µM]
1 | O=C(O)c1ccccn1 [Compound 1, pyridine-2-carboxylic acid, reference compound] | > 200 | no significant activity | 17.1 µM | > 200 | > 200 | no significant activity | 6 | no reduction |  |  |  |  |  |  |  |  |  |  |  | 
2 | Cc1ccc(C(=O)Nc2cccnc2C(=O)O)cc1Cl [Compound 17] | 87.6 | detectable inhibition | 8.46 µM and 8.5 µM | 93 | 95.7 | detectable inhibition |  |  | low micromolar inhibition | detectable inhibition |  |  |  |  |  |  |  |  |  | 
3 | O=C(Nc1cccnc1C(=O)O)c1cocn1 [Compound 18] | > 200 | inactive | > 200 µM | > 200 | > 200 | inactive |  |  | inactive | inactive |  |  |  |  |  |  |  |  |  | 
4 | O=C(O)c1ncccc1NS(=O)(=O)c1ccccc1 [Compound 32] | > 200 |  | 49.9 µM | 1.9 | > 200 |  |  |  |  | strong inhibition | 16 | 4 | 2 |  |  |  |  |  |  | 
5 | O=C(O)c1ncccc1NS(=O)(=O)Cc1ccccc1Cl [Compound 39] |  |  |  |  |  |  |  |  |  |  | 16 | 0.5 | 1 | 20.9 | 32.6 | 10.9 |  |  |  | 
6 | O=C(O)c1ncccc1NS(=O)(=O)Cc1cccc(C(F)(F)F)c1 [Compound 40] |  |  |  |  |  |  |  |  |  |  | 16 | 2 | 1 | > 200 | 17.9 | 71.6 |  |  |  | 
7 | O=C(O)c1ncccc1NS(=O)(=O)Cc1ccc(Cl)cc1Cl [Compound 41] |  |  |  |  |  |  |  |  |  |  | 16 | 1 | 1 | 74.3 | 80.6 | 17.5 |  |  |  | 
8 | O=C(O)c1ncccc1NS(=O)(=O)Cc1cc(Cl)cc(Cl)c1 [Compound 43] | 180 |  | 18.6 µM | 0.3 | 57.2 |  |  |  |  | strong inhibition | 8 | 1 | 1 |  |  |  |  |  |  | 
9 | O=C(O)c1ncccc1NS(=O)(=O)c1ccccc1 [Compound 61] |  |  |  |  |  |  |  |  |  |  | 16 | 4 | 4 |  |  |  | > 200 | 49.9 | 0.32 | > 200
